Results taken from article PMC6086658, “Unified mechanisms for self-RNA recognition by RIG-I Singleton-Merten syndrome variants” (eLife, 2018).
Residue numbers refer to the chain shown, from its start. {Cy3} = Cy3 fluorescent label

What was measured:
RIG-I [1] = target: T1, RIG-I (Homo sapiens, UniProt O95786); test: Fluorescence anisotropy RNA binding; conditions: 10 nM labeled RNA, one-site binding fit, n = 4
T1 construct: Recombinant full-length human RIG-I or RIG-I single amino acid mutants (1–925, N-terminal His-tag); made in house; host or cells: High Five (Trichoplusia ni) insect cells, baculovirus, pFBDM vector
T1 sequence (O95786 1-925): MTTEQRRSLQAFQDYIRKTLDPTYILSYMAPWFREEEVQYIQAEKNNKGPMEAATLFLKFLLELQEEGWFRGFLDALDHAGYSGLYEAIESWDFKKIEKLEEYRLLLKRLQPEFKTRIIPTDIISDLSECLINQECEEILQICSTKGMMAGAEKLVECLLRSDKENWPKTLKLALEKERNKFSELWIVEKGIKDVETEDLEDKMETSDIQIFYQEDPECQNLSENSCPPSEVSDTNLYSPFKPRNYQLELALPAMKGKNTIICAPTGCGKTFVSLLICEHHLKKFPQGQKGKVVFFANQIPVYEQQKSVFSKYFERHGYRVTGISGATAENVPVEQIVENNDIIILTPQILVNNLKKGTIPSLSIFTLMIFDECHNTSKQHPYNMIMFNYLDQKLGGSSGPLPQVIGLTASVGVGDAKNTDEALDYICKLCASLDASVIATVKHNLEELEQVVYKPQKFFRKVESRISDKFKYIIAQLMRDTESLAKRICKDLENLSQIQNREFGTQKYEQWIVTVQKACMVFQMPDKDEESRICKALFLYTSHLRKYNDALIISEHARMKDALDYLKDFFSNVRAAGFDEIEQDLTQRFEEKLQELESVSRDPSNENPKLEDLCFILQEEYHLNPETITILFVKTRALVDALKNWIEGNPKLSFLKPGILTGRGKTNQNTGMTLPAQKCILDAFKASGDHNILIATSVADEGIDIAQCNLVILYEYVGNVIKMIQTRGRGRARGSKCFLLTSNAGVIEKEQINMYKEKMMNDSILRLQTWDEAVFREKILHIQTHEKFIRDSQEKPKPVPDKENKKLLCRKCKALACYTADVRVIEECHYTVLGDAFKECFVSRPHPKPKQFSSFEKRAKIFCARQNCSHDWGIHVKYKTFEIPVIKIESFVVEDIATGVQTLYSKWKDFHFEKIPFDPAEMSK
Method: (§1) Affinities of full-length RIG-I or RIG-I C268F (1–925, N-terminal His-tag) to a Cy3-labeled hpRNA (5'-Cy3-[…]-3', purchased from Biomers, Ulm, Germany) were determined using fluorescence anisotropy. All samples were prepared in 96-well black chimney microplates (Greiner Bio-One, Kremsmünster, Austria). 10 nM RNA was pre-incubated with different protein concentrations (2.4 nM – 5 µM) for 15 min at room temperature in assay buffer (25 mM HEPES, 50 mM KCl, 5 mM MgCl2, 1 mM DTT, pH 7). Fluorescence anisotropy was measured after the addition of 5 mM ATP using a TECAN M1000 microplate reader (Tecan, Männedorf, Switzerland) at λex/em = 530/570 nm and gain = 130 during a time course of 25 min in 1 min intervals. Assays were performed four times in independent experiments using the same protein purification batch. For determination of affinities, anisotropy values between 15 and 20 min measuring time were averaged and fit to the following single-site binding model using R ([R Development Core Team, 2013]):(1) y=Bmax[P]/P+KD where y is the observed anisotropy, [P] is the protein concentration, Bmax is the maximal anisotropy and KD is the dissociation constant. Fitting was performed globally on all available datasets. Representative values in figures are mean values ± SD.

RIG-I C268F [2] = target: T2, RIG-I C268F (Homo sapiens, UniProt O95786, C268F); test: Fluorescence anisotropy RNA binding; conditions: 10 nM labeled RNA, one-site binding fit, n = 4
T2 construct: made in house; host or cells: High Five (Trichoplusia ni) insect cells, baculovirus, pFBDM vector
T2 sequence (O95786 1-925 C268F): T1 sequence (O95786 1-925) with C268F
Method: as §1

RIG-I [3] = target: T1, RIG-I; test: MANT-nucleotide binding, tryptophan fluorescence FRET; conditions: n = 4
Method: Binding of MANT-ATP and MANT-ATPγS to different full-length RIG-I mutants (1–925, N-terminal His-tag) was determined via Förster resonance energy transfer from RIG-I to MANT-ATP (Jena Bioscience, Jena, Germany). […] Fluorescence of MANT-ATP was measured in a TECAN M1000 microplate reader at λex/em = 290/448 nm, gain = 170 using an average of five reads per well. Assays were performed four times in independent experiments using the same protein purification batch. For determination of affinities fluorescence values were fitted to Equation (1) using R, where y is the fluorescence, [P] is the protein concentration, Bmax is the maximal fluorescence and KD is the dissociation constant. Fitting was performed globally on all available datasets. Representative values in figures are mean values ± SD.

RIG-I C268F [4] = target: T2, RIG-I C268F; test: as above
Method: Binding of MANT-ATP and MANT-ATPγS to different full-length RIG-I mutants (1–925, N-terminal His-tag) was determined via Förster resonance energy transfer from RIG-I to MANT-ATP (Jena Bioscience, Jena, Germany). All samples were prepared in 96-well black chimney microplates. 2.2 µM protein and equimolar concentrations of a 14mer dsRNA (5'-CGACGCUAGCGUCG-3', see 'Protein crystalization') were pre-incubated with different MANT-ATP concentrations (0.2 µM – 200 µM) for 15 min at room temperature in assay buffer (25 mM HEPES, 50 mM NaCl, 5 mM MgCl2, 1 mM DTT, pH 7). Fluorescence of MANT-ATP was measured in a TECAN M1000 microplate reader at λex/em = 290/448 nm, gain = 170 using an average of five reads per well. Assays were performed four times in independent experiments using the same protein purification batch. For determination of affinities fluorescence values were fitted to Equation (1) using R, where y is the fluorescence, [P] is the protein concentration, Bmax is the maximal fluorescence and KD is the dissociation constant. Fitting was performed globally on all available datasets. Representative values in figures are mean values ± SD.

RIG-I C268F [5] = target: T3, RIG-I C268F (human, UniProt O95786 1-925, C268F); test: fluorescence anisotropy; no ATP, 5 mM Mg2+; Fluorescence anisotropy: 25 mM HEPES pH 7, 50 mM KCl, 5 mM MgCl2, 1 mM DTT, +/- 5 mM ATP, 10 nM RNA, room temperature; conditions: protein: recombinant; tags: N-terminal His-tag; label: 5'-Cy3; hairpin with non-base-paired ends
T3 sequence: T1 sequence (O95786 1-925) with C268F

RIG-I wild type = target: T4, RIG-I wild type (human, UniProt O95786 1-925); test: as above; conditions: protein: recombinant; tags: N-terminal His-tag; label: 5'-Cy3; hairpin with non-base-paired ends
T4 sequence: T1 sequence (O95786 1-925)

RIG-I Δ2CARD C268F = target: T5, RIG-I Δ2CARD C268F (human, UniProt O95786 232-925, C268F); test: crystal structure; co-crystallized with ADP-BeFx or ATP; no nucleotide bound in structure; Fluorescence anisotropy: 25 mM HEPES pH 7, 50 mM KCl, 5 mM MgCl2, 1 mM DTT, +/- 5 mM ATP, 10 nM RNA, room temperature; conditions: protein: recombinant; tags: N-terminal His-tag (insect cells) or His-SUMO3 cleaved off (E. coli); blunt, palindromic self-duplex
T5 sequence: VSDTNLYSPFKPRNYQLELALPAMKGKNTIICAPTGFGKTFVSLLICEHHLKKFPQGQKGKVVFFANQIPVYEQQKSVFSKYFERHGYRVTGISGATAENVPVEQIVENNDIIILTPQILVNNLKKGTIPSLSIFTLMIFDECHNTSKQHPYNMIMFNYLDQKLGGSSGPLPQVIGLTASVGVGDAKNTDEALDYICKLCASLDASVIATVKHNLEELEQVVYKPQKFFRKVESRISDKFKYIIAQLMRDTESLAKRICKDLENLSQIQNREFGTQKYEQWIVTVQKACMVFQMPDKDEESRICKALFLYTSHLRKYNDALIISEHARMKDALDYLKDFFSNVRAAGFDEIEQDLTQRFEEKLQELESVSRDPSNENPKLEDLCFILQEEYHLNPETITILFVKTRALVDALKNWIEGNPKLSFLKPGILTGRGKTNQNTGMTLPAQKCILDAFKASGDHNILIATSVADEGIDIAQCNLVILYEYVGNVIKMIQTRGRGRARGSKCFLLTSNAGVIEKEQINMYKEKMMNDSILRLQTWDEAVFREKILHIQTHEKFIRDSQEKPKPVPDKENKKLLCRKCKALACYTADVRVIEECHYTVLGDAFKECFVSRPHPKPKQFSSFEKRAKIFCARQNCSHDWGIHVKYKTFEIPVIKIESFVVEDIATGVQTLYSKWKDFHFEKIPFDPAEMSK

5'-Cy3-CCACCCGCCCCCCUAGUGAGGGGGGCGGGCC-3' (RNA, 5' {Cy3}, backbone not given here; RNA hairpin ligand with non-base-paired ends, used in fluorescence anisotropy binding assays) [fluorescently labeled 14mer dsRNA, Cy3-labeled hairpin RNA containing non-base-paired RNA ends, purchased from Biomers]
Kd (RIG-I [1]; absence of ATP, read-out: KD, RIG-I): 0.54 µM | Kd (RIG-I [1]; presence of 5 mM ATP, read-out: KD, RIG-I + ATP): 1.04 µM | Kd (RIG-I C268F [2]; absence of ATP, read-out: KD, RIG-I C268F): 0.098 µM | Kd (RIG-I C268F [2]; presence of 5 mM ATP, read-out: KD, RIG-I C268F + ATP): 0.058 µM

MANT-ATPγS
Kd (RIG-I [3]; absence of RNA, full-length His-RIG-I, read-out: Affinity (KD) to RIG-I): 58 ± 7 µM | Kd (RIG-I [3]; presence of equimolar 14mer dsRNA, read-out: Affinity (KD) to RIG-I + RNA): 11 ± 1 µM | Kd (RIG-I C268F [4]; absence of RNA, n = 4, read-out: Affinity (KD) to RIG-I C268F): 116 ± 13 µM | Kd (RIG-I C268F [4]; presence of equimolar 14mer dsRNA, n.f. = no fit possible as no saturation was reached, read-out: Affinity (KD) to RIG-I C268F + RNA): 147 ± 55 µM

CCACCCGCCCCCCUAGUGAGGGGGGCGGGCC (structured_RNA) [Cy3-hpRNA (14mer stem hairpin)]
binding result (RIG-I C268F [5]): binds | binding result (RIG-I wild type): binds

B1: 14mer dsRNA (dsRNA)
RNA 1: CGACGCUAGCGUCG
RNA 2: CGACGCUAGCGUCG
binding result (RIG-I Δ2CARD C268F): binds
